{
  "source": "patent US20260315763A1",
  "about": "“OLFACTORY DELIVERY OF THERAPEUTIC PEPTIDES” (Rocket Science Health Corp., priority 2023, published 2026)",
  "key": {"[1]": {"test": "Visualizing olfactory cleft delivery with methylene blue (nasal endoscopy)", "type": "in vivo, human (healthy participants)", "from_the_text": "The primary goal of these studies is to visualize delivery to the olfactory cleft (first with technetium-99, and then with methylene blue). The device was tuned to eject the fluid at a specific velocity. This velocity was chosen based on the viscosity of the fluid and the studies in Example 1, to maximize the extent of laminar flow.\nVisualizing Olfactory Cleft Delivery with Methylene Blue\nParticipants: Five healthy participants (ages 19+) with no history of sinonasal symptoms and no evidence of nasal inflammation were recruited for this study. Prior to recruitment of participants study procedures were approved by Providence Health Care research ethics board, (British Columbia, Canada) and conducted under Health Canada Investigational Testing Authorization #314993. All participants were assessed by a licensed otolaryngologist physician to confirm their eligibility. Participants completed two study visits during which a licensed otolaryngologist physician administered 0.1 mL of the visual dye tracer, methylene blue.\nStudy Design: During the first visit, the methylene blue was administered using the Laminar Fluid Ejection method (1.5 mm cannula; velocity=4.5 m/s). During the second visit, methylene blue was administered using a conventional nasal spray device (Pharma systems Item #10272, UPC: 063636802714). The Pharma systems spray device was used in these experiments because it was the device normally used by the compounding pharmacy for intranasal delivery. It was the device patients and clinicians were used to at this clinic.\nFollowing delivery, the physician used a nasal endoscope to image the deposition of methylene blue to the olfactory cleft at up to five time points (1, 5, 8, 12, and 15 minutes following delivery). From each image, the physician judged whether at least 50% of the methylene blue fluid was delivered to the olfactory cleft. If <50% of the methylene blue was judged to have deposited in the olfactory cleft, imaging was stopped and that session's trial was completed."}, "[2]": {"tested_on": "prefrontal and posterior brain regions", "test": "fMRI control analysis: ALFF in spray condition across Blocks 1 and 2", "type": "in vivo, human (participants)", "conditions": "insulin without MucoLox, 80 IU", "from_the_text": "(§1) Participants: Eight participants (male and female, ages 23-30) were recruited for this study from the New Brunswick area. Participants reported no history of abnormal nasal or sinus symptoms, insulin use, diabetes, metabolic disorder, or any complicating medical conditions, or contraindications for nasal cannulation, MRI or venous blood sampling. Additionally, participants reported no previous diagnosis of SARS-COV-2 with symptoms of anosmia. Study procedures were approved by Horizon Health Network's Human Research Protection Program prior to recruitment of participants.\n(§2) Study Design: An open-label 4-arm crossover study design was used to understand the insulin brain effects between the focal deposition (cannula) and the standard nasal mister method. Undiluted solution of 80 IU (0.16 ml) prepared from U500 insulin was delivered to the olfactory region (condition A). Under this condition, 40 IU (0.08 ml) of human insulin was delivered directly by an ENT physician to each nostril. For condition B, undiluted solution containing 15% MucoLox (a thickening agent) and 80 IU (0.16 ml) insulin was delivered to the olfactory region. For condition C, a total of 1.6 ml insulin and sterile water mixture was prepared for Nasal spray delivery. The nasal spray bottle contained 80 IU of U500 insulin mixed with a sterile water solution. […]"}, "[3]": {"tested_on": "prefrontal brain activity", "test": "Insulin delivery fMRI analysis: ALFF, prefrontal brain activity", "type": "in vivo, human (participants)", "from_the_text": "In the in-human studies below, the device was tuned to eject the fluid at a specific velocity. This velocity was chosen based on the viscosity of the fluid and the studies described in Example 1, to maximize the extent of laminar flow.\nas §1\nStudy Design: An open-label 4-arm crossover study design was used to understand the insulin brain effects between the focal deposition (cannula) and the standard nasal mister method. Undiluted solution of 80 IU (0.16 ml) prepared from U500 insulin was delivered to the olfactory region (condition A). Under this condition, 40 IU (0.08 ml) of human insulin was delivered directly by an ENT physician to each nostril. For condition B, undiluted solution containing 15% MucoLox (a thickening agent) and 80 IU (0.16 ml) insulin was delivered to the olfactory region. For condition C, a total of 1.6 ml insulin and sterile water mixture was prepared for Nasal spray delivery. The nasal spray bottle contained 80 IU of U500 insulin mixed with a sterile water solution. The spray was delivered over 4 minutes with two puffs per nostril every minute. Condition sequences AC, CA, BC, and CB comprise the 4 arms of the study.\nParticipants were randomly assigned to one of two blocks. In Block 1, participants were randomly assigned by alternating sequence to one of the A arms (AC or CA). […] In Block 2, participants were randomly assigned by alternating sequence to one of the B arms (BC or CB). Block 2 participants did receive MucoLox in the cannula session. For a given participant, appointments for each condition were scheduled at a minimum of 14 days apart to ensure no carry-over effects from the previous condition.\nMRI Acquisition: Magnetic resonance imaging was completed at an imaging clinic in Moncton (Moncton MRI) using standard sequences on a 3T Siemens Skyra, VD13. Anatomical T1-weighted MPRAGE images were acquired for each subject [TR=1900 ms, TE=2.99 ms, Flip Angle=9 degrees, Voxel Size=0.45×0.45×0.9 mm, Dimensions=448×512×160]. Resting state functional T2*-weighted BOLD images [TR=2600 ms, TE=30 ms, Flip Angle=90 degrees, Voxel Size=3×3×3 mm, Dimensions=80×80×45] were acquired for each subject at baseline and again 15 minutes and 60 minutes following intranasal delivery of insulin. Each resting state functional scan consisted of 180 volumes acquired over the course of 7 minutes and 48 seconds.\nMRI Preprocessing: MRI data was preprocessed using fMRIPrep. Preprocessing steps of the anatomical images included correction for intensity nonuniformity, skull stripping, segmentation of gray matter, white matter, and cerebrospinal fluid (CSF) masks, and normalization to MNI template space. Preprocessing steps for the functional images included slice time correction, head motion correction (calculation of framewise displacement and 6-degrees of motion parameters and their temporal derivatives), registration to the subjects T1w image, normalization to MNI template space, and spatial smoothing (3 mm FWHM Gaussian kernel).\nfMRI Denoising: Functional MRI data were denoised using a standard denoising pipeline implemented in the CONN Toolbox (v 22.a) and SPM (v 12.7). […]"}, "[4]": {"tested_on": "anterior division of the cingulate gyrus", "test": "fMRI region of interest analysis: mean ALFF in anterior division of the cingulate gyrus", "type": "in vivo, human (participants)", "conditions": "both olfactory delivery and spray conditions; 80 IU; baseline, 15, 60 min", "from_the_text": "as §1, §2"}, "inferior temporal gyrus": {"tested_on": "inferior temporal gyrus", "test": "fMRI region of interest analysis: mean ALFF in inferior temporal gyrus", "type": "in vivo, human (participants)", "conditions": "both olfactory delivery and spray conditions; 80 IU; baseline, 15, 60 min", "from_the_text": "as §1, §2"}},
  "note": "“Also recorded” adds a separate entry of the source.",
  "data": [
    {"compound": "CN(C)c1ccc2nc3ccc(=[N+](C)C)cc-3sc2c1", "note": "[Methylene Blue, methylene blue]", "values": [
      {"measurement": "participants with successful delivery of >50% of the methylene blue to the olfactory cleft", "setting": "[1]; Laminar Fluid Ejection method, 0.1 mL", "value": "Four of the five participants"},
      {"measurement": "delivery of at least 50% of the dye to the olfactory cleft", "setting": "[1]; conventional nasal spray, each of the five participants", "value": "failed to deliver at least 50% of the dye to the olfactory cleft"},
      {"measurement": "Olfactory Residence Time", "setting": "[1]; participant 2.01, LFE Method, 0.1 mL, 1 attempt", "value": 15, "unit": "min"},
      {"measurement": "Olfactory Residence Time", "setting": "[1]; participant 2.01, Nasal Spray, 0.1 mL, 1 attempt", "value": 0, "unit": "min"},
      {"measurement": "Olfactory Residence Time", "setting": "[1]; participant 2.02, LFE Method, 0.1 mL, 2 attempts", "value": 8, "unit": "min"},
      {"measurement": "Olfactory Residence Time", "setting": "[1]; participant 2.02, Nasal Spray, 0.1 mL, 1 attempt", "value": 0, "unit": "min"},
      {"measurement": "Olfactory Residence Time", "setting": "[1]; participant 2.03, LFE Method, 0.1 mL, 1 attempt", "value": 5, "unit": "min"},
      {"measurement": "Olfactory Residence Time", "setting": "[1]; participant 2.03, Nasal Spray, 0.1 mL, 1 attempt", "value": 0, "unit": "min"},
      {"measurement": "Olfactory Residence Time", "setting": "[1]; participant 2.04, LFE Method, 0.1 mL, 5 attempts", "value": 0, "unit": "min"},
      {"measurement": "Olfactory Residence Time", "setting": "[1]; participant 2.04, Nasal Spray, 0.1 mL, 1 attempt", "value": 0, "unit": "min"},
      {"measurement": "Olfactory Residence Time", "setting": "[1]; participant 2.05, LFE Method, 0.1 mL, 1 attempt", "value": 1, "unit": "min"},
      {"measurement": "Olfactory Residence Time", "setting": "[1]; participant 2.05, Nasal Spray, 0.1 mL, 1 attempt", "value": 0, "unit": "min"}
    ]},
    {"compound": "insulin: Undiluted solution of 80 IU (0.16 ml) prepared from U500 insulin; spray: 80 IU of U500 insulin mixed with a sterile water solution", "values": [
      {"measurement": "brain activity, Block 2 compared to Block 1 participants", "setting": "[2]; 15 minutes", "value": "increased brain activity in prefrontal cortex and reduced brain activity in posterior brain regions"},
      {"measurement": "brain activity, Block 2 compared to Block 1 participants", "setting": "[2]; 60 minutes", "value": "decreased brain activity in select prefrontal and posterior regions"},
      {"measurement": "prefrontal brain activity compared to baseline", "setting": "[3]; 80 IU intranasal insulin, scans after receiving insulin (15 and 60 minutes)", "value": "decreased prefrontal brain activity compared to baseline scans"},
      {"measurement": "decrease in prefrontal brain activity, olfactory delivery device compared to spray mister", "setting": "[3]; 80 IU, olfactory delivery device vs traditional spray mister", "value": "larger and longer-lasting decrease in prefrontal brain activity"},
      {"measurement": "prefrontal deactivation, olfactory delivery device compared to spray device", "setting": "[3]; Block 1 (insulin without MucoLox), 80 IU", "value": "greater and more sustained"},
      {"measurement": "reduction in prefrontal brain activity, olfactory delivery compared to spray", "setting": "[3]; Block 1, 80 IU, 60 minutes", "value": "even more intense in the olfactory delivery condition"},
      {"measurement": "change in prefrontal brain activity compared to baseline", "setting": "[3]; Block 1, both spray and olfactory delivery device, 80 IU, 15 minutes", "value": "reduction in brain activity in prefrontal regions"},
      {"measurement": "change in prefrontal brain activity compared to baseline", "setting": "[3]; Block 1, olfactory delivery device, 80 IU, 15 minutes, compared to insulin with MucoLox (Block 2)", "value": "this reduction is greater in the absence of MucoLox"},
      {"measurement": "change in prefrontal brain activity compared to baseline", "setting": "[3]; Block 2, spray mister, 80 IU, 15 minutes", "value": "small decrease of prefrontal brain activity"},
      {"measurement": "change in prefrontal brain activity compared to baseline", "setting": "[3]; Block 2, spray mister, 80 IU, 60 minutes", "value": "remained deactivated"},
      {"measurement": "reduction in prefrontal brain activity, spray condition compared to olfactory delivery with MucoLox", "setting": "[3]; Block 2, spray, 80 IU, 60 minutes", "value": "more intense in the spray condition"},
      {"measurement": "duration of reduction of brain activity after delivery", "setting": "[3]; delivery of insulin using the method disclosed (olfactory delivery)", "value": "at least 60 minutes"},
      {"measurement": "deactivation of the prefrontal cortex, olfactory delivery device compared to spray mister", "setting": "[3]; intranasal delivery of insulin, 80 IU, overall conclusion", "value": "deactivation of the prefrontal cortex to a greater degree"},
      {"measurement": "deactivation of prefrontal cortex, insulin alone compared to insulin with MucoLox", "setting": "[3]; olfactory delivery device, 80 IU", "value": "greater, longer lasting deactivation of prefrontal cortex"},
      {"measurement": "reduction in prefrontal brain activity, Block 1 compared to Block 2 (MucoLox)", "setting": "[3]; olfactory delivery device, 80 IU, 60 minutes", "value": "more intense in Block 1 participants who did not receive MucoLox"},
      {"measurement": "ALFF over time, anterior division of the cingulate gyrus", "setting": "[4]", "value": "decreased over time; also recorded: decrease in ALFF in both the olfactory delivery and spray conditions"},
      {"measurement": "ALFF over time, inferior temporal gyrus", "setting": "inferior temporal gyrus", "value": "increased over time; also recorded: increase in ALFF for both conditions"}
    ]}
  ]
}
